Earlier results in publication PMC2920223 (Analytical chemistry, 2010).

Assays:
[1] = test system: puromycin-sensitive aminopeptidases (PSA, NAP and NAP2); conditions: at 20 μM puromycin
[2] = test system: aminopeptidases (aminopeptidase N (APN), puromycin-sensitive aminopeptidase (PSA), NAP and NAP2); conditions: rat
[3] = exogenous YGGFM, rat striatal slices

## COc1ccc(C[C@H](N)C(=O)N[C@H]2[C@@H](O)[C@H](n3cnc4c(N(C)C)ncnc43)O[C@@H]2CO)cc1 [puromycin]
[1]
  inhibition of puromycin-sensitive aminopeptidases: effectively inhibited

## YGGFL
[2]
  cleaved bond: tyrosine-Gly

## YGGFM
[3]
  hydrolysis at Tyr-Gly as share of the total hydrolysis: about 80%
